Source: patent US4661602A, “Substituted alkyl imidazole derivatives” (G. D. Searle & Co., priority 1985, dated 1987)
Counter-ions that a name gives are not always drawn. Like-named read-outs stand apart in the source and are kept apart here.

Experiments:
[1] = test system: B. Fragilis NCTC 10581; experiment: Anti-anaerobic activity, strain A (microtitre plate MIC/MBC); format: cell-based, Bacteroides fragilis
[2] = test system: B. Fragilis NCTC 9343; experiment: Anti-anaerobic activity, strain B (microtitre plate MIC/MBC); format: cell-based, Bacteroides fragilis; conditions: for MIC: 48 hours, 37° C., anaerobic chamber, lowest concentration with no detectable growth
[3] = test system: B. Fragilis NCTC 9344; experiment: Anti-anaerobic activity, strain C (microtitre plate MIC/MBC); format: cell-based; conditions: Bacteroides fragilis, NCTC9344, 48 h
[4] = test system: B. Fragilis ATCC 11295; experiment: Anti-anaerobic activity, strain D (microtitre plate MIC/MBC); format: cell-based; conditions: Bacteroides fragilis, ATCC11295, 48 h; for MIC: 48 hours, 37° C., anaerobic chamber, lowest concentration with no detectable growth
[5] = test system: B. Fragilis WS-1; experiment: Anti-anaerobic activity, strain E (microtitre plate MIC/MBC); format: cell-based; conditions: Bacteroides fragilis, 48 h
[6] = test system: Clostridium perfringens NCTC 523; experiment: microbe, parasite or virus in culture; format: cell-based; conditions: NCTC523
[7] = test system: Cl. perfringens NCTC 8237; experiment: microbe, parasite or virus in culture; format: cell-based; conditions: Clostridium perfringens, NCTC8237
[8] = test system: Campl. fetus ATCC 29428; experiment: Anti-anaerobic activity, additional strains; format: cell-based; conditions: Campylobacter fetus, ATCC29428
[9] = test system: Fuso. necrophorum ATCC 11295; experiment: Anti-anaerobic activity, additional strains; format: cell-based; conditions: Fusobacterium necrophorum, ATCC11295
[10] = test system: Peptococc. magnus ATCC 29328; experiment: Anti-anaerobic activity, additional strains; format: cell-based
[11] = test system: P. prevotti ATCC 9321; experiment: Anti-anaerobic activity, additional strains; format: cell-based
[12] = test system: Peptostrepto anaerobicus ATCC 27337; experiment: Anti-anaerobic activity, additional strains; format: cell-based
[13] = test system: Propionibacterium acnes NCTC 737; experiment: Anti-anaerobic activity, additional strains; format: cell-based; conditions: Cutibacterium acnes, NCTC737
[14] = test system: P. acnes NCTC 7337; experiment: Anti-anaerobic activity, additional strains; format: cell-based, Propionibacterium acnes; conditions: Cutibacterium acnes, NCTC7337
[15] = test system: Trichomonas vaginalis; experiment: MIC against Trichomonas vaginalis (Diamonds Medium); format: cell-based
[16] = Bacteroides fragilis, NCTC10581, 48 h, strain A, less than 5 colonies (99.9% reduction in viable count) after 48 hours, read-out: MBC
[17] = Bacteroides fragilis, NCTC9343, 48 h, strain B, read-out: MIC
[18] = Bacteroides fragilis, NCTC9343, 48 h, strain B, less than 5 colonies (99.9% reduction in viable count) after 48 hours, read-out: MBC
[19] = strain C, less than 5 colonies (99.9% reduction in viable count) after 48 hours, read-out: MBC
[20] = strain D, less than 5 colonies (99.9% reduction in viable count) after 48 hours, read-out: MBC
[21] = strain E, 48 hours, 37° C., anaerobic chamber, lowest concentration with no detectable growth, read-out: MIC
[22] = Peptostrepto anaerobicus ATCC 27337
[23] = Bacteroides fragilis, NCTC10581, 48 h, strain A, 48 hours, 37° C., anaerobic chamber, lowest concentration with no detectable growth, read-out: MIC
[24] = strain C, 48 hours, 37° C., anaerobic chamber, lowest concentration with no detectable growth, read-out: MIC
[25] = strain E, less than 5 colonies (99.9% reduction in viable count) after 48 hours, read-out: MBC
[26] = Bacteroides fragilis, NCTC10581, 48 h

Clc1ccc(N2CCN=C2C(Cn2ccnc2)c2ccccc2)c(Cl)c1 (stereo not drawn) [Example 3, 1-(2,4-Dichlorophenyl)-4,5-dihydro-2-[2-(imidazol-1-yl)-1-phenylethyl]imidazole hydrochloride]
6.2 µg/mL: MBC ([8]; Campl. fetus ATCC 29428, read-out: MBC) | MBC ([9]; Fuso. necrophorum ATCC 11295, read-out: MBC) | MBC ([10]; Peptococc. magnus ATCC 29328, read-out: MBC)
1.5 µg/mL: MIC [2, 17] | MBC [2, 18] | MIC [5, 21] | MIC ([8]; Campl. fetus ATCC 29428, read-out: MIC) | MIC ([10]; Peptococc. magnus ATCC 29328) | MIC [12, 22]
0.8 µg/mL: MBC [1, 16] | MBC [3, 19] | MBC [4, 20] | MIC [6] | MIC ([13]; Propionibacterium acnes NCTC 737, read-out: MIC) | MBC ([14]; P. acnes NCTC 7337, read-out: MBC) | MIC ([14]; P. acnes NCTC 7337, read-out: MIC)
3.1 µg/mL: MBC [6] | MBC [7] | MIC [7] | MIC [9] | MIC [11] | MBC [12] | MBC [13] | MIC [15]
12.5 µg/mL: MBC ([11]; P. prevotti ATCC 9321)

FC(F)(F)c1cccc(N2CCN=C2C(Cn2ccnc2)c2ccccc2)c1 (stereo not drawn) [Example 4, 4,5-Dihydro-2-[2-(imidazol-1-yl)-1-phenylethyl]-1-(3-trifluoromethylphenyl)imidazole hydrochloride]
12.5 µg/mL: MIC [2, 17] | MIC [3, 24] | MIC ([4]; strain D) | MIC [5, 21]
6.2 µg/mL: MIC [1, 23]

Clc1ccc(N2CCN=C2C(CCn2ccnc2)c2ccccc2)c(Cl)c1 (stereo not drawn) [Example 27, 1-(2,4-Dichlorophenyl)-4,5-dihydro-2-[3-(imidazol-1-yl)-1-phenylpropyl]imidazole]
12.5 µg/mL: MIC [5, 21]
100 µg/mL: MIC [1, 23] | MIC [2, 17] | MIC [3, 24] | MIC ([4]; strain D)

CCCCCCCCN1CCN=C1C(Cn1ccnc1)c1ccccc1 (stereo not drawn) [Example 19, 4,5-Dihydro-2-[2-(imidazol-1-yl)-1-phenylethyl]-1-n-octylimidazole dihydrochloride]
6.2 µg/mL: MBC [2, 18]
25 µg/mL: MBC [1, 16] | MBC [3, 19] | MIC ([4]; strain D)
12.5 µg/mL: MIC [1, 23] | MIC [3, 24] | MIC [5, 21] | MBC [5, 25]
100 µg/mL: MBC [4, 20]

CC1=NCCN1CC(C1=NCCN1c1ccc(Cl)cc1Cl)c1ccccc1 (stereo not drawn) [Example 23, 1-(2,4-Dichlorophenyl)-4,5-dihydro-2-[2-(4,5-dihydro-2-methylimidazol-1-yl)-1-phenylethyl]imidazole dihydrochloride]
1.5 µg/mL: MIC [1, 23] | MBC [1, 16] | MIC [2, 17] | MIC [3, 24] | MBC [3, 19] | MIC ([4]; strain D) | MBC [4, 20] | MBC [5, 25]
3.1 µg/mL: MBC [2, 18]

Cc1ncc([N+](=O)[O-])n1CCO [Metronidazole, reference compound]
1.5 µg/mL: MIC ([2]; Bacteroides fragilis, NCTC9343, 48 h, strain B)
0.08 µg/mL: MIC [6]
0.8 µg/mL: MIC [1, 26] | MIC ([2]; strain B) | MIC [3] | MIC [5]
0.3 µg/mL: MIC [12, 22] | MBC ([12]; Peptostrepto anaerobicus ATCC 27337, read-out: MBC)
0.6 µg/mL: MIC [1, 23] | MIC ([10]; Peptococc. magnus ATCC 29328) | MIC ([15]; Diamonds Medium, lowest concentration at which no mobile organisms are viable microscopically, read-out: MIC)
2.5 µg/mL: MBC ([11]; P. prevotti ATCC 9321)
10 µg/mL: MBC [4] | MBC [7] | MIC [7] | MBC [8] | MIC [8] | MBC [9] | MIC [9] | MBC [10] | MBC [13] | MIC [13] | MBC [14] | MIC [14]
1.2 µg/mL: MBC [1, 26] | MIC ([1]; strain A, 48 hours, 37° C., anaerobic chamber, lowest concentration with no detectable growth) | MBC ([2]; Bacteroides fragilis, NCTC9343, 48 h) | MBC [3] | MBC [5] | MBC [6] | MIC ([11]; P. prevotti ATCC 9321, read-out: MIC)
